# Entries after “also recorded” stand apart in the source; their conditions may differ.
# How the values were obtained:
# [1] = test system: Male Hos:HR-1 hairless mice; assay: Test for obstruction of meibomian gland orifices by feeding HR-AD diet using hairless mice; type: in vivo, mouse; conditions: for Number of obstructed meibomian gland orifices (mean, out of eight): six eyes
# Procedure: 2. Test for Obstruction of Meibomian Gland Orifices by Feeding HR-AD Diet Using Hairless Mice A 1% (w/v) clarithromycin test solution was prepared by the same operation as described in Pharmacological Test 1. Male Hos:HR-1 hairless mice at five weeks of age were divided into a group of 6 fed a regular diet (CRF-1 diet, manufactured by Oriental Yeast Co., Ltd.); and a group of 12 fed an HR-AD diet (manufactured by Nosan Corporation), and the mice in each respective group were freely allowed to feed the regular diet or HR-AD diet. On the 28th day after the start of the diets, meibomian gland orifices were observed using a slit-lamp and the number of obstructed orifices out of eight meibomian gland orifices of the center of the right upper eyelid were counted. The presence or absence of an obstruction of the meibomian gland orifice was determined based on whether the meibomian gland orifice was in a cloudy and swollen state. The 12 mice in the HR-AD diet group were further divided into a saline-administered group; and a 1% (w/v) clarithromycin aqueous solution-administered group, and testing was carried out with six eyes in each group so as to minimize variations in the mean scores of the number of obstructed meibomian gland orifices in each group; from the 29th day after starting the diets, saline (2 μl/eye, three times per day) or 1% (w/v) clarithromycin aqueous solution (2 μl/eye, three times per day) were instilled for 14 days. At 42 days after starting the diet, meibomian gland orifices were observed using a slit-lamp and the number of obstructed orifices out of eight meibomian gland orifices of the center of the right upper eyelid were counted.
# [2] = test system: female Lewis rats; assay: Test for meibomian gland peripheral telangiectasia by administration of complete Freund's adjuvant using rats; type: in vivo, rat; conditions: for Telangiectasia score (mean): six eyes
# Procedure: 1. Test for Meibomian Gland Peripheral Telangiectasia by Administration of Full Friend's Adjuvant Using Rats Clarithromycin (LKT Laboratories, Inc.), concentrated glycerin, dibasic sodium phosphate hydrate and polyoxyl 40 stearate were added to purified water and dissolved to prepare a test sample comprising clarithromycin at a final concentration of 1% (w/v), at pH 7. Twenty five μl of complete Freund's adjuvant was administered to one site of the right upper eyelid of female Lewis rats at five weeks age. On the seventh day from the initiation, the periphery of the meibomian gland orifices on the right upper eyelid was observed using a slit-lamp and a telangiectasia score was determined. The eyelid margin of the upper eyelid was divided into three segments: ear, middle and nasal sites, and based on criteria described in Table 1, scores of telangiectasia peripheral to the meibomian gland orifices in each segment were determined and the sum of the scores in three segments were calculated as the telangiectasia score of one eye. The presence or absence of dilation of the capillaries was determined based on whether a capillary that is usually not visible could be ascertained as a result of enlargement of the capillary diameter. [table] After dividing into a saline-administered group and a 1% (w/v) clarithromycin aqueous solution-administered groups, the test was carried out with six eyes in each group so as to minimize variations in mean scores, and from the 8th day after initiation, saline (5 μl/eye, six times per day) or 1% (w/v) clarithromycin aqueous solution (5 μl/eye, three or six times per day) were instilled into the right eyes for 21 days. At 28 days after initiation, the peripheries of the meibomian gland orifices on the right upper eyelids were observed using a slit-lamp and the telangiectasia score was determined.
# [3] = 42 days after starting HR-AD diet (14 days from starting administration), 1% (w/v) aqueous solution
compound,measurement,setting,value
"CC[C@H]1OC(=O)[C@H](C)[C@@H](O[C@H]2C[C@@](C)(OC)[C@@H](O)[C@H](C)O2)[C@H](C)[C@@H](O[C@@H]2O[C@H](C)C[C@H](N(C)C)[C@H]2O)[C@](C)(OC)C[C@@H](C)C(=O)[C@H](C)[C@@H](O)[C@]1(C)O [clarithromycin, Clarithromycin]","Number of obstructed meibomian gland orifices (mean, out of eight)","[1]; 28 days after starting feeding HR-AD diet (day 0 from start of administration, baseline), 1% (w/v) aqueous solution group",5.5
same,Meibomian gland concretion,[1]; [3],improved
same,"Number of obstructed meibomian gland orifices, change in words",[1]; [3],notably reduced the number of obstructions; also recorded: remarkably decreased
same,"Number of obstructed meibomian gland orifices (mean, out of eight)","[1]; 42 days after starting feeding HR-AD diet (day 14 from start of administration), 1% (w/v) aqueous solution, 2 μl/eye, three times per day",1.8
same,Telangiectasia score (mean),"[2]; 7 days after initiation (day 0 from start of administration, baseline), 1% (w/v) aqueous solution group, instilled 3 times per day",5.3
same,Telangiectasia score (mean),"[2]; 7 days after initiation (day 0 from start of administration, baseline), 1% (w/v) aqueous solution group, instilled 6 times per day",5.3
same,Telangiectasia score (mean),"[2]; 28 days after initiation (day 21 from start of administration), 1% (w/v) aqueous solution, 5 μl/eye, instilled 3 times per day",2.8
same,Telangiectasia score (mean),"[2]; 28 days after initiation (day 21 from start of administration), 1% (w/v) aqueous solution, 5 μl/eye, instilled 6 times per day",2.5
same,Telangiectasia score in the vicinity of the meibomian gland orifices compared to the saline-administered group,"[2]; 28 days after initiation (day 21 from start of administration), 1% aqueous solution instilled three or six times per day",notably improved the telangiectasia score; also recorded: remarkably lower

# From patent publication US20170071852A1, “THERAPEUTIC OR PREVENTIVE AGENT FOR MEIBOMIAN GLAND DYSFUNCTION OR MEIBOMIAN GLAND BLOCKAGE” (Santen Pharmaceutical Co., Ltd., priority 2012, published 2017)
